Laboratory results taken from ChEMBL document CHEMBL5465560, “Selectivity Literature for EUbOPEN Chemogenomic Library” (2024).
Blank lines part the entries; values can stand above or below the compound they belong to.

Experiments:
[1] = molecular target: Protein-arginine deiminase type-4 (Homo sapiens, UniProt Q9UM07); experiment: Selectivity interaction (Fluorescence polarization ligand binding assay (2 mM calcium)) EUB0000266bCl PADI4
[2] = molecular target: T1, Dual serine/threonine and tyrosine protein kinase (Homo sapiens) (UniProt Q6XUX3); experiment: Selectivity interaction (KinomeScan (DiscoverX)) EUB0001079a DSTYK; settings: at 1 µM
T1 sequence (whole entry): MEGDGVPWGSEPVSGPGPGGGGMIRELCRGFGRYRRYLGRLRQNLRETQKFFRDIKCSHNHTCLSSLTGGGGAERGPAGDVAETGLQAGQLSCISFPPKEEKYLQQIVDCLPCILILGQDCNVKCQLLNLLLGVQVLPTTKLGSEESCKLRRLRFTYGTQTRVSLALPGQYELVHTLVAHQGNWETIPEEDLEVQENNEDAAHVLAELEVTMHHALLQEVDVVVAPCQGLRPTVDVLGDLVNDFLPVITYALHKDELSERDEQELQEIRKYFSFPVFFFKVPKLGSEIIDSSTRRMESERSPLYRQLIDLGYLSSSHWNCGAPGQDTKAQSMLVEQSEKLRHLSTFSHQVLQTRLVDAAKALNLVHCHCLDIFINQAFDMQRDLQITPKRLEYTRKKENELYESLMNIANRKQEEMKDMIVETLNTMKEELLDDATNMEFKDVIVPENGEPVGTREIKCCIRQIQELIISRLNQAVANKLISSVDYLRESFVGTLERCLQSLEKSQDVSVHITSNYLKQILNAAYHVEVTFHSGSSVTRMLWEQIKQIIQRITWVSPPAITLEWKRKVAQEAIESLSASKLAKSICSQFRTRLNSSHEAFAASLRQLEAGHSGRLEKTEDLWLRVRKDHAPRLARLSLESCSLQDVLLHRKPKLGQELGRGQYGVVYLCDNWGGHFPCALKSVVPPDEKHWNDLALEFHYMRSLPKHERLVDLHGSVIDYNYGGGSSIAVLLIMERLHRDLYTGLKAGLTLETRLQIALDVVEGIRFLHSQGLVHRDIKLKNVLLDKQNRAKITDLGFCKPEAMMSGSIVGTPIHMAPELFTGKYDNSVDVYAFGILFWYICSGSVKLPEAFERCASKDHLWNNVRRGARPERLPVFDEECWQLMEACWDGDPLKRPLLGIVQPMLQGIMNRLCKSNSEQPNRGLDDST

[3] = molecular target: T2, Dual specificity mitogen-activated protein kinase kinase 6 (Homo sapiens) (UniProt P52564); experiment: Selectivity interaction (ProQinase) EUB0000171b MAP2K6
T2 sequence (whole entry): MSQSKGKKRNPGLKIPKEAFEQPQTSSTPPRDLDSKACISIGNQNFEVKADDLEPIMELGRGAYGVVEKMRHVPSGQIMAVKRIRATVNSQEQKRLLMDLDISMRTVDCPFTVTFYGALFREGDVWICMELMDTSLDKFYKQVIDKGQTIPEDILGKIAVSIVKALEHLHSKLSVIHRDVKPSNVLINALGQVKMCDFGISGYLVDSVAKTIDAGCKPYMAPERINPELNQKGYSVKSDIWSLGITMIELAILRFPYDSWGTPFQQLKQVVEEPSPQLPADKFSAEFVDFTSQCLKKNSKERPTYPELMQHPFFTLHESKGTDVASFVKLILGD

[4] = molecular target: Phosphatidylinositol 4-phosphate 5-kinase type-1 gamma (Homo sapiens) (UniProt O60331); experiment: Selectivity interaction (KinomeScan (DiscoverX)) EUB0000655a PIP5K1C; settings: at 10 µM
[5] = molecular target: Macrophage colony-stimulating factor 1 receptor (Homo sapiens) (UniProt P07333); experiment: Selectivity interaction (KinomeScan (DiscoverX)) EUB0000618a CSF1R; settings: at 10 µM
[6] = molecular target: BDNF/NT-3 growth factors receptor (Homo sapiens) (UniProt Q16620); experiment: Selectivity interaction (SelectScreen profiling (Invitrogen)) EUB0000607a NTRK2; settings: at 2 µM
[7] = molecular target: T3, Myosin-IIIb (Homo sapiens) (UniProt Q8WXR4); experiment: Selectivity interaction (KinomeScan (DiscoverX)) EUB0000607a MYO3B; settings: at 10 µM
T3 sequence (whole entry): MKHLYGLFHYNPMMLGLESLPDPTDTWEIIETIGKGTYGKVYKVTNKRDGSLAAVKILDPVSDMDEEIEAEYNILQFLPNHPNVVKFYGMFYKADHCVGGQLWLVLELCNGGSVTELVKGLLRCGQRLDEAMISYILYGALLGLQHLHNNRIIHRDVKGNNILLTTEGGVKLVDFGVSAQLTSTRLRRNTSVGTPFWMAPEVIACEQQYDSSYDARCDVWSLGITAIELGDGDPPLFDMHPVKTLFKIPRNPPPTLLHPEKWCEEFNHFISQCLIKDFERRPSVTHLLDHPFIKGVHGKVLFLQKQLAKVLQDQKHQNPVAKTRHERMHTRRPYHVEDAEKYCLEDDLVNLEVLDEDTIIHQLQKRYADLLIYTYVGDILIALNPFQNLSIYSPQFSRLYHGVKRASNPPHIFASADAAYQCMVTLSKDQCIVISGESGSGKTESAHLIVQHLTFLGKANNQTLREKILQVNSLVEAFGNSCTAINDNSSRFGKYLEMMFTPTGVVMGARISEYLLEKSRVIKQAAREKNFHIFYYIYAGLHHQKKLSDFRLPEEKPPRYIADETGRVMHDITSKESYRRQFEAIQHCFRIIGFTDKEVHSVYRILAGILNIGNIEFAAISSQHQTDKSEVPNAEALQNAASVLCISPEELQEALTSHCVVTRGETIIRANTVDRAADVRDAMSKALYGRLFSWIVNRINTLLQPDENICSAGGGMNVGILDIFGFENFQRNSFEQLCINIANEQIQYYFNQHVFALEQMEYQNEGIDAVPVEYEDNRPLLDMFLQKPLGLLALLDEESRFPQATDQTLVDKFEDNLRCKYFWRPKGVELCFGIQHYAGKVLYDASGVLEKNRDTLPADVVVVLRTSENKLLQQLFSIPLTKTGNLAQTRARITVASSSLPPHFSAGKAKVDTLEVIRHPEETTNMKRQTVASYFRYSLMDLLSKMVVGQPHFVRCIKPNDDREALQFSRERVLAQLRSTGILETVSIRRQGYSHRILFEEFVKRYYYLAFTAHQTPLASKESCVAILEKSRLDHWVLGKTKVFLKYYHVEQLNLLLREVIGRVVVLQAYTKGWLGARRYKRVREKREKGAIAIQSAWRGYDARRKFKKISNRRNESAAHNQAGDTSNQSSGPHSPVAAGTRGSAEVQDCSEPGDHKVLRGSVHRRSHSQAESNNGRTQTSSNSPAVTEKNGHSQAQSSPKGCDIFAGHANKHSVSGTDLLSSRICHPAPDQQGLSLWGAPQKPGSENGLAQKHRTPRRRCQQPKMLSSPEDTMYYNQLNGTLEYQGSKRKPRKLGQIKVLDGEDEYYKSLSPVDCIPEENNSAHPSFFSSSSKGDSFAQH

Chain of Protein-arginine deiminase type-4 (Q9UM07 whole entry): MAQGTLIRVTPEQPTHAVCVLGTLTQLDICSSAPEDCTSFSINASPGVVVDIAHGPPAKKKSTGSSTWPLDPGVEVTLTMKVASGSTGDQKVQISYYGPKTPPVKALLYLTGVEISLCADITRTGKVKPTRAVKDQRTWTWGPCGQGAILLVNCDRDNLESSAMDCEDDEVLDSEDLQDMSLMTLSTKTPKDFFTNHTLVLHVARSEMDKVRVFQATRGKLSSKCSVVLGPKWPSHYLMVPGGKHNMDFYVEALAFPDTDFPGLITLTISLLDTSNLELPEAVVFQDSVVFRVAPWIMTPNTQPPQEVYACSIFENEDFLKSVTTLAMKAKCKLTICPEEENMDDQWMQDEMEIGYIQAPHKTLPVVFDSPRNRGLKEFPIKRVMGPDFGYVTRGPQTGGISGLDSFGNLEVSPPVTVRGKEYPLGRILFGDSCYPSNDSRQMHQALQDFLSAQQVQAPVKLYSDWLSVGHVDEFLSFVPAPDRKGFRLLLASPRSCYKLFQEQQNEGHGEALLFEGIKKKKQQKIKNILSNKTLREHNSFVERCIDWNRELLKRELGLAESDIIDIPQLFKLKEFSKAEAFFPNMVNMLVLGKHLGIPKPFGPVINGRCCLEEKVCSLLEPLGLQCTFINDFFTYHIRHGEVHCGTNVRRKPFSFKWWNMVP
Chain of Phosphatidylinositol 4-phosphate 5-kinase type-1 gamma (Homo sapiens) (O60331 whole entry): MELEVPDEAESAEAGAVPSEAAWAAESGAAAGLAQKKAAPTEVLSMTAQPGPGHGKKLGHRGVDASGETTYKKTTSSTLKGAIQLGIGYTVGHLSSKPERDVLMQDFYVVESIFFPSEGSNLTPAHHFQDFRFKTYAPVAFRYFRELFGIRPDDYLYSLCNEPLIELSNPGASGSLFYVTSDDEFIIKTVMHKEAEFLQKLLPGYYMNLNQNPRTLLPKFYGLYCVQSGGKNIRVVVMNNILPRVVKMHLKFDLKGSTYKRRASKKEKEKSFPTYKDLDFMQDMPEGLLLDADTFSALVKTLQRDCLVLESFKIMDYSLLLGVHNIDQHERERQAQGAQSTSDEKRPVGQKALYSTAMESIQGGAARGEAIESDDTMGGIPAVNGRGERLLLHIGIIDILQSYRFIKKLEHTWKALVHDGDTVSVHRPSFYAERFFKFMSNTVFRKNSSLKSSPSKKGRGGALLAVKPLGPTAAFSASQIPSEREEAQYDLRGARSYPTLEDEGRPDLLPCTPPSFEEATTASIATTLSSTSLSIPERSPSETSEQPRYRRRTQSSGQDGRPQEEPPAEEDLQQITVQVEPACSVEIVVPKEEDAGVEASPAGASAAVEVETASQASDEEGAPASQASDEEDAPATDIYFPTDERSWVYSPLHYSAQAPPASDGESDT
Chain of Macrophage colony-stimulating factor 1 receptor (Homo sapiens) (P07333 whole entry): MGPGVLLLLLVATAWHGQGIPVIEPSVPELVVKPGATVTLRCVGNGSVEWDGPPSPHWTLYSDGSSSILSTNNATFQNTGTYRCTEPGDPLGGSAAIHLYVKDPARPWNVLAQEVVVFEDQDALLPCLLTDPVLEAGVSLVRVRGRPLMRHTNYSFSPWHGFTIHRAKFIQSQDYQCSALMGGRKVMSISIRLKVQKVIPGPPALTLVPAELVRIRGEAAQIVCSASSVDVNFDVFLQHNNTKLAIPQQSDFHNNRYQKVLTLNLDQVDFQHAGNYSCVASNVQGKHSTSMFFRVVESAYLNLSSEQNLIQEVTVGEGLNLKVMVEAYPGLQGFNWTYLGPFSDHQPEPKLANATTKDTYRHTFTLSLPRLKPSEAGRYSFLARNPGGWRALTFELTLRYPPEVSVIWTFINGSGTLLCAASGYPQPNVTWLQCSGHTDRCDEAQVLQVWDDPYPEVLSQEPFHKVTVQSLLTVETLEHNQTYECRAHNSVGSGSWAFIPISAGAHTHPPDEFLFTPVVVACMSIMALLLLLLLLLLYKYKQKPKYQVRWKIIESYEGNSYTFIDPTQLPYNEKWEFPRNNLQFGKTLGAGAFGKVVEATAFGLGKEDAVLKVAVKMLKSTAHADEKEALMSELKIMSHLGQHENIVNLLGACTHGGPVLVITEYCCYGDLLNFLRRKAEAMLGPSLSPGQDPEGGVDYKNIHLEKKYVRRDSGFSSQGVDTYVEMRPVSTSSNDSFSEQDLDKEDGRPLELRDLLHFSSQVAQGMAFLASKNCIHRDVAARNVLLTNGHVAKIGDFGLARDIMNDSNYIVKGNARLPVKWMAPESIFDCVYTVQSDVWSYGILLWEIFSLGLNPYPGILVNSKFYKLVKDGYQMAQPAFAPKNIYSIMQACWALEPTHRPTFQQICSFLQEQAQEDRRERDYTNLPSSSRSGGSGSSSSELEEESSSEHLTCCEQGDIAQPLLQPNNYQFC
Chain of BDNF/NT-3 growth factors receptor (Homo sapiens) (Q16620 32-822 limits assumed): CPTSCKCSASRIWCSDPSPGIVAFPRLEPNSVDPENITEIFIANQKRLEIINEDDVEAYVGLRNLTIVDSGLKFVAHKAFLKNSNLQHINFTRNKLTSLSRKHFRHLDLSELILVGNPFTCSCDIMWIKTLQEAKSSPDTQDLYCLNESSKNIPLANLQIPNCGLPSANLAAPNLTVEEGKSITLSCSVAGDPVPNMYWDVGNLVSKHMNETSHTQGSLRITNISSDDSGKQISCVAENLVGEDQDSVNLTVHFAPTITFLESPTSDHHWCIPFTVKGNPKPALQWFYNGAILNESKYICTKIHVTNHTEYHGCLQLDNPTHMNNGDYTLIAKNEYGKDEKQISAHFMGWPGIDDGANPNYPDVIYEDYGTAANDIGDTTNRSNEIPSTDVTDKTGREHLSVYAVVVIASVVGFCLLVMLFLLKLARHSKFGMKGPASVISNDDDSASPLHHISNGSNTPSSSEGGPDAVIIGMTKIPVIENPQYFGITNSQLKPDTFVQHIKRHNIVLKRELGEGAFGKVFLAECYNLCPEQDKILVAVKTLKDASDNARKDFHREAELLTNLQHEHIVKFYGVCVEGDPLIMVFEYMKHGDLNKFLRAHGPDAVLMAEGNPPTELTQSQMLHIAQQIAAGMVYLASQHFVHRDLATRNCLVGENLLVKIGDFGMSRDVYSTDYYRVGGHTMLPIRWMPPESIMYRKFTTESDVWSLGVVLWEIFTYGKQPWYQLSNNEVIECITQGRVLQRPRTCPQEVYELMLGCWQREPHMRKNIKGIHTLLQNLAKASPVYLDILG

IC50 [1]: 250 nM
SMILES: CCn1c(-c2nc3cc(C(=O)N4CCCC(N)C4)ccc3n2C)cc2ccccc21 (stereo not drawn)

SMILES: Nc1cnc(N2CCc3cc(S(=O)(=O)Nc4c(F)cc(Cl)cc4F)cc(N4CCCC4=O)c32)nc1 [TP-020n]
% of control [2]: 100%

% of control ([3]; at 1 µM): 103% | % of control ([3]; at 5 µM): 126%
SMILES: C=CC(=O)Nc1cccc(C(=O)Nc2ccc(Nc3cc(-c4[nH]c(SC)nc4C)ccn3)cc2)c1

SMILES: CN(C)CCOc1ccc(-c2nc(-c3ccncc3)c(-c3ccc4c(c3)CC/C4=N\O)[nH]2)cc1
% of control [4]: 52%

SMILES: O[C@H]1CC[C@H](Nc2ncc3nc(Nc4c(F)cc(F)cc4F)n([C@H]4CCOC4)c3n2)CC1
% of control [5]: 64%

SMILES: CNC(=O)Nc1ccc(-c2nc(N3CC4CCC(C3)O4)c3cnn(C4CCC5(CC4)OCCO5)c3n2)cc1
% of inhibition [6]: 1% | % of control [7]: 91%
